Data: patent EP3449978A1, “INHIBITORS OF ARYL HYDROCARBON RECEPTOR FOR TREATING SOFT-TISSUE SARCOMA AND PREVENTING NEUROFIBROMA GROWTH AND/OR TRANSFORMATION TO MALIGNANT PERIPHERAL NERVE SHEATH TUMORS” (UNIVERSITE PARIS DESCARTES, priority 2017, dated 2019)

How the values were obtained:
Type in all cases: cell-based, human
90-8 cells [1] = test: Annexin V / PI flow cytometry in 90-8 cells; conditions: 50µM, 48h and 72h, Annexin V and PI staining (Fig. 3C, 3D)
Method: • Figure 1: AHR signaling pathway is activated in Dermal and Plexiform Neurofibromas, and MPNST. • A, Total RNA was isolated from patients having Dermal Neurofibromas (n=8), Plexiform Neurofibromas (n=16) and MPNST (n=14). RT-qPCR were performed using primers recognizing specifically the genes indicated. Table indicates median [range] mRNA levels. mRNA levels were normalized such that the median value of the dermal neurofibromas was 1. Kruskal Wallis H test was used to compare MPNST vs Plexiform Neurofibromas vs Dermal Neurofibromas. • B and B', Representative immunohistochemical study of AhR in a case of MPNST. […] A strong nuclear AhR staining is detected in a proportion of tumor cells while intra-tumoral vessels (arrows) whereas fibroblasts in a fibrous septa (*) taken as internal negative controls are not stained. • Figure 2: AhR inhibition induced death of MPNST cell lines (STS26T) by apoptosis. • A, STS26T cell line was reverse transfected with either non-transfected (NT) or siRNA (10 nM). […] Quantitative real-time PCR experiments were performed using primers recognizing AhR, AHRR, ARNT, CYP1A1 and CYP1 B1. *p<0.05, by non-parametric Student's t-test. • B, Flow cytometry has been conducted to determine the percentage of cell population of living cells, apoptotic cells, late apoptosis and dead. […]

AhR [2] = test: Quantitative RT-PCR of AhR target and cell death genes in 90-8 cells
Method: RT-qPCR were performed using primers recognizing specifically the genes indicated. […] The total RNA was then extracted from these cells. […] Quantitative real-time PCR experiments were performed using primers recognizing CYP1A1 and CYP1 B1. *p<0.05, **p<0.01, ***p<0.001 by students t-test. • B, Human MPNST cell line (90-8) was incubated with AhR antagonist CH-223191 (1, 5, 10, 50 and 100 µM) during 48h and 72h. […] E, Total RNA was extracted from 90-8 cell line. Quantitative real-time PCR experiments were performed using primers recognizing PUMA, GADD45 and IL1β. The RT-PCR was normalized using 26S RNA. Data represent the mean+/-SEM of at least 3 independent experiments. *p<0.05, **p<0.01, **p<0.001, by Student's t test.

STS26T cells = test: Annexin V / PI flow cytometry in STS26T cells
Method: • Figure 1: AHR signaling pathway is activated in Dermal and Plexiform Neurofibromas, and MPNST. • A, Total RNA was isolated from patients having Dermal Neurofibromas (n=8), Plexiform Neurofibromas (n=16) and MPNST (n=14). RT-qPCR were performed using primers recognizing specifically the genes indicated. Table indicates median [range] mRNA levels. mRNA levels were normalized such that the median value of the dermal neurofibromas was 1. Kruskal Wallis H test was used to compare MPNST vs Plexiform Neurofibromas vs Dermal Neurofibromas. • B and B', Representative immunohistochemical study of AhR in a case of MPNST. Formalin fixed, paraffin embedded MPNST samples were stained with Hematoxylin-eosin-saffron (HES) and antibody recognizing AhR has been used to detect AhR. A strong nuclear AhR staining is detected in a proportion of tumor cells while intra-tumoral vessels (arrows) whereas fibroblasts in a fibrous septa (*) taken as internal negative controls are not stained. • Figure 2: AhR inhibition induced death of MPNST cell lines (STS26T) by apoptosis. • A, STS26T cell line was reverse transfected with either non-transfected (NT) or siRNA (10 nM). The total RNA was then extracted from these cells. Quantitative real-time PCR experiments were performed using primers recognizing AhR, AHRR, ARNT, CYP1A1 and CYP1 B1. *p<0.05, by non-parametric Student's t-test. • B, Flow cytometry has been conducted to determine the percentage of cell population of living cells, apoptotic cells, late apoptosis and dead. After 72h of medium change, cells are stained with Annexin and PI to detect the apoptosis and necrosis. Results represent the means +/- SEM of at least four independent experiments. *p<0.05, by non-parametric Student's t-test. • C, Total RNA was extracted from MPNST cell line STS26T treated either with TMF (10µM) and CH-223191 (50µM) or DMSO. Quantitative real-time PCR experiments were performed using primers recognizing CYP1A1, IL1β. The RT-PCR was normalized using TBP mRNA. Data represent the mean +/- SEM of at least 3 independent experiments. *p<0.05, by Student's t-test. • D, Human STS26T cell line was treated with either AHR antagonists CH-223191 (10µM and 50µM) or TMF (10µM) or DMSO. After 48h/72h of medium change, cells are stained with Annexin V and Propidium Iodide (PI) to detect apoptosis and necrosis. Flow cytometry has been conducted to determine the percentage of cell population of living cells (Annexin V-/PI-), apoptotic cells state (Annexin V+/PI-), late apoptosis state cells (Annexin V+/PI+) and dead cells (Annexin V-/PI+). […] Quantitative real-time PCR experiments were performed using primers recognizing CYP1A1 and CYP1 B1. *p<0.05, **p<0.01, ***p<0.001 by students t-test. • B, Human MPNST cell line (90-8) was incubated with AhR antagonist CH-223191 (1, 5, 10, 50 and 100 µM) during 48h and 72h. Cell viability was analyzed using WST1 assay. **p<.01, by Bonferroni's post hoc tests after two-way ANOVA when compared with DMSO. • C - D, Percentage of cell population of apoptotic (Annexin V+/PI-), dead (Annexin V-/PI+), necrotic (Annexin V+/PI+) and living (Annexin V-/PI-) cells were analyzed using flow cytometry. […] Quantitative real-time PCR experiments were performed using primers recognizing PUMA, GADD45 and IL1β. […]

90-8 cells [3] = test: In vitro cytotoxicity assay (WST1 assay) in 90-8 cells; conditions: 50 µM, WST1 assay (Fig. 3B)
Method: 90-8 cells were seeded in triplicate on 96-well plates. Cells were treated with either CH-223191 or 0.1% DMSO. Cytotoxicity was quantified 48 and 72 hours after treatment using WST1 assay (Roche). Relative cytotoxicity was determined as ratio of absorbance at 450 nm of cells treated with CH-223191 versus cells treated with DMSO. IC50 values corresponding to concentrations associated to 50% of cell viability after 72 hours of continuous exposure were determined.

AhR [4] = test: Quantitative RT-PCR of AhR pathway genes in STS26T cells; conditions: TMF 10µM, CH-223191 50µM, versus DMSO (Fig. 2C)
Method: • Figure 1: AHR signaling pathway is activated in Dermal and Plexiform Neurofibromas, and MPNST. • A, Total RNA was isolated from patients having Dermal Neurofibromas (n=8), Plexiform Neurofibromas (n=16) and […]=14). RT-qPCR were performed using primers recognizing specifically the genes indicated. […] Kruskal Wallis H test was used to compare MPNST vs Plexiform Neurofibromas vs Dermal Neurofibromas. • B and B', Representative immunohistochemical study of AhR in a case of MPNST. Formalin fixed, paraffin embedded MPNST samples were stained with Hematoxylin-eosin-saffron (HES) and antibody recognizing AhR has been used to detect AhR. A strong nuclear AhR staining is detected in a proportion of tumor cells while intra-tumoral vessels (arrows) whereas fibroblasts in a fibrous septa (*) taken as internal negative controls are not stained. • Figure 2: AhR inhibition induced death of MPNST cell lines (ST[…]) by apoptosis. • A, ST[…] cell line was reverse transfected with either non-transfected (NT) or siRNA (10 nM). The total RNA was then extracted from these cells. Quantitative real-time PCR experiments were performed using primers recognizing AhR, AHRR, ARNT, CYP1A1 and CYP1 B1. *p<0.05, by non-parametric Student's t-test. • B, Flow cytometry has been conducted to determine the percentage of cell population of living cells, apoptotic cells, late apoptosis and dead. […]

With `Cc1ccccc1N=Nc1ccc(NC(=O)c2ccnn2C)c(C)c1` [CH-223191] the “number of dead cells, apoptosis and necrosis” value (90-8 cells [1]) was “increased the number of dead cells and enhanced apoptosis and necrosis”, the “expression of IL1β” value (AhR [2]; 90-8 cells (Fig. 3E)) was “reduced” and the “expression of PUMA and GADD45 genes” value (AhR [2]; 90-8 cells (Fig. 3E)) was “enhanced”. The “expression of the classical AhR target genes: CYP1A1 and CYP1B1” value (AhR [2]; 90-8 cells, 50 µM (Fig. 3A)) was “inhibited”, the “cell death, apoptosis and necrosis” value (STS26T cells; STS26T, 50µM at 48h and 72h, Annexin V and PI staining (Fig. 2D)) was “increased cell death and enhanced apoptosis and necrosis” and the “decreased 90-8 cell viability” value (90-8 cells [3]) was 50%. The “expression of AhR target gene: CYP1A” value (AhR [4]) was “inhibited”.

`COc1ccc(-c2cc(=O)c3cc(OC)ccc3o2)c(OC)c1` [TMF, 6,2',4',-trimethoxyflavone] was tested, and the “effect on STS26T cell death” value (STS26T cells; 10µM at 48h and 72h, compared with CH-223191) was “more potent effect than CH-223191”, the cells necrotic (STS26T cells; STS26T, 10µM, 72h) was 30% and the cells underwent apoptosis (STS26T cells; STS26T, 10µM, 72h) was 20%. For the same compound, the “decrease of cell viability” value (STS26T cells; STS26T, 10µM, 72h) was 50% and the “expression of AhR target gene: CYP1A” value (AhR [4]) was “inhibited”.
